Reference: paper PMC7272617 (Scientific Reports, 2020)
Converted amounts (≈) assume the structure as drawn. Read-outs that look alike come from different tables or passages of the source.

Tests used:
[1] = tested on: MDR P. aeruginosa clinical isolate No.12; assay: microbe, parasite or virus in culture; details: Pseudomonas aeruginosa
[2] = tested on: MDR P. aeruginosa clinical isolate No.10; assay: microbe, parasite or virus in culture; details: Pseudomonas aeruginosa
[3] = tested on: MDR P. aeruginosa clinical isolate No.14; assay: microbe, parasite or virus in culture; details: Pseudomonas aeruginosa
[4] = tested on: MDR P. aeruginosa clinical isolate No.6; assay: microbe, parasite or virus in culture; details: Pseudomonas aeruginosa
[5] = tested on: MDR P. aeruginosa clinical isolate No.13; assay: microbe, parasite or virus in culture; details: Pseudomonas aeruginosa
[6] = tested on: MDR P. aeruginosa clinical isolate No.11; assay: microbe, parasite or virus in culture; details: Pseudomonas aeruginosa
[7] = tested on: Pseudomonas aeruginosa ATCC 27853; assay: microbe, parasite or virus in culture; details: ATCC27853, 24 h
[8] = tested on: MDR P. aeruginosa clinical isolate No.1; assay: microbe, parasite or virus in culture; details: Pseudomonas aeruginosa
[9] = tested on: MDR P. aeruginosa clinical isolate No.8; assay: microbe, parasite or virus in culture; details: Pseudomonas aeruginosa
[10] = tested on: MDR P. aeruginosa clinical isolate No.2; assay: microbe, parasite or virus in culture; details: Pseudomonas aeruginosa
[11] = tested on: MDR P. aeruginosa clinical isolate No.9; assay: microbe, parasite or virus in culture; details: Pseudomonas aeruginosa
[12] = tested on: MDR P. aeruginosa clinical isolate No.7; assay: microbe, parasite or virus in culture; details: Pseudomonas aeruginosa
[13] = tested on: MDR P. aeruginosa clinical isolate No.5; assay: microbe, parasite or virus in culture; details: Pseudomonas aeruginosa
[14] = tested on: MDR P. aeruginosa clinical isolate No.4; assay: microbe, parasite or virus in culture; details: Pseudomonas aeruginosa
[15] = tested on: MDR P. aeruginosa clinical isolate No.3; assay: microbe, parasite or virus in culture; details: Pseudomonas aeruginosa
[16] = tested on: Escherichia coli O157:H7 MT strain; details: E. coli O157:H7 MT strain; MHB, 37 °C, 24 h
[17] = tested on: Bacillus cereus ATCC 11778; details: Bacillus cereus ATCC 11778; MHB, 37 °C, 24 h
P. aeruginosa ATCC 27853 = assay: Membrane permeability (PI) and depolarization (BOX), flow cytometry; assay type: cell-based, Pseudomonas aeruginosa; details: 1 × MIC, 30 min; for permeabilized and depolarized cells (BOX+PI+): 37 °C, triplicate
Protocol: Their outer and inner membranes provide important protection for Gram-negative bacteria. To assess membrane permeability and depolarization induced by PA-13, the DNA intercalating dyes propidium iodide (PI) and bis-(1,3-dibutylbarbituric acid) trimethine oxonol (BOX) were used as previously described. The fluorescence conferred by these dyes is generally associated with the loss of membrane integrity and potential, respectively.
Briefly, P. aeruginosa ATCC 27853 was cultured to mid-logarithmic phase and harvested by centrifugation at 2,000 × g for 5 min. The bacterial cells were washed thrice with PBS and diluted to 10^7 CFU/ml in 50 ml of PBS. […] Bacterial pellets were harvested and washed with PBS by centrifugation at 10,000 × g for 10 min. […] Untreated bacterial cells (no peptide) served as a negative control, whereas bacterial cells treated with melittin served as a positive control. Data was recorded using a flow cytometer (CytoFlex, Beckman Coulter) at a laser excitation wavelength of 488 nm. Forward scatter (FS), side scatter (SS), green fluorescence (530/30 nm) from BOX and red fluorescence (585/42 nm) emitted by PI were collected using logarithmic scales. 25,000 cells, defined according to their scatter parameters, were counted in each sample. The experiments were performed in triplicate and the data was analyzed using Kaluza software.

[18] = tested on: all Gram-negative strains; assay: Mean MIC and therapeutic index, Gram-negative strains; assay type: cell-based; details: 7 Gram-negative strains of Table 3
Protocol: (§1) The antimicrobial activity of the peptides was determined against both Gram-positive and -negative bacteria including 14 MDR P. aeruginosa clinical isolates from Bhumibol Adulyadej Hospital (Tables 1 and 3). The minimal inhibitory concentration (MIC) of each peptide was measured according to a modification of the National Committee for Clinical Laboratory Standards (NCCLS) broth microdilution method as previously described. Briefly, bacterial cells in mid-log phase were cultured in Müeller-Hinton broth (MHB) and then diluted to 10^7 CFU/ml. […] Plates were incubated at 37 °C for 24 h, and MICs were defined as the lowest concentration of peptide that prevented visible turbidity. Cultures without peptides and uninoculated MHB were employed as positive and negative controls, respectively. Colony count assays were performed to determine the minimal bactericidal concentrations (MBCs) for determination of time-killing activity. As previously described, a 50 μl aliquot from each non-turbid well identified in the MIC determination experiment was spread on agar plates.
(§2) To further evaluate the global activity of these peptides, the geometric mean (GM) MIC and the therapeutic index (TI) of each were calculated (Table 3). The TI, a widely used parameter to evaluate cell selectivity and specificity of antimicrobial agents, was calculated as the ratio of MHC (the concentration that causes 10% hemolysis) to the geometric mean of MICs[22]. Higher TIs indicated greater cell selectivity and specificity.

[19] = tested on: Shigella sonnei ATCC 11060; details: MHB, 37 °C, 24 h
[20] = tested on: human red blood cells (hRBCs); assay: Hemolytic activity, hemoglobin release; details: 2% hRBC, 1 h, 37 °C
Protocol: Hemolytic activity of the peptides was assayed against human red blood cells (hRBCs) by measuring the amount of hemoglobin released after treatment. The hRBCs, freshly collected from a healthy volunteer in polycarbonate tubes containing heparin, were washed three times in sterile phosphate buffered saline (PBS) and centrifuged at 2,000 × g for 5 min or until the supernatant became clear. […] After 1 h of incubation at 37 °C, intact hRBCs were pelleted by centrifugation at 2,000 × g for 10 min. The supernatant was transferred to a new 96-well plate and the release of hemoglobin was monitored by measurement of absorbance at 405 nm using a Multiskan FC microplate reader. The hRBCs in PBS only (ODBlank) and in 0.1% Triton X-100 (ODTriton X-100) were employed as negative (0% hemolysis) and positive (100% hemolysis) controls, respectively. The percentage of hemolysis was calculated according to the following equation: %Hemolysis=(ODSample−ABlank)/(ODTritonX−100−ODBlank)×100

[21] = tested on: Staphylococcus epidermidis ATCC 12228; details: S. epidermidis ATCC 12228; MHB, 37 °C, 24 h
[22] = tested on: Salmonella Typhimurium ATCC 13311; details: Salmonella Typhimurium ATCC 13311; MHB, 37 °C, 24 h
[23] = tested on: Enterococcus faecalis ATCC 29212; details: Enterococcus faecalis ATCC 29212; MHB, 37 °C, 24 h
[24] = tested on: Acinetobacter baumannii MT strain; details: Acinetobacter baumannii MT strain; MHB, 37 °C, 24 h
[25] = tested on: Vibrio cholera O1 Inaba DMST 16261; details: MHB, 37 °C, 24 h
[26] = tested on: all Gram-positive strains; assay: Mean MIC and therapeutic index, Gram-positive strains; assay type: cell-based; details: 5 Gram-positive strains of Table 3
Protocol: as §1, §2

[27] = tested on: Listeria monocytogenes 10403 s; details: Listeria monocytogenes 10403 s; MHB, 37 °C, 24 h
[28] = tested on: Pseudomonas aeruginosa ATCC 27853; details: P. aeruginosa ATCC 27853; MHB, 10^7 CFU/ml, 37 °C, 24 h, no visible turbidity
[29] = tested on: L929 mouse fibroblast cells; assay: Cytotoxicity, MTT viability assay; details: 250 µg/ml, 24 h, triplicate

Structure (SMILES): C[C@@H](O)[C@H]1C(=O)N2C(C(=O)O)=C(SCCN=CN)C[C@H]12 [Imipenem]
- MIC [1]: 125 mg/L (≈ 418 µM)
- MIC [2]: > 125 mg/L
- MIC [3]: > 125 mg/L
- MIC [4]: > 125 mg/L
- MIC [5]: 62.5 mg/L (≈ 209 µM)
- MIC [6]: > 125 mg/L
- MIC [7]: ≤ 0.98 mg/L
- MIC [8]: > 125 mg/L
- MIC [9]: 125 mg/L (≈ 418 µM)
- MIC [10]: > 125 mg/L
- MIC [11]: > 125 mg/L
- MIC [12]: > 125 mg/L
- MIC [13]: 125 mg/L (≈ 418 µM)
- MIC [14]: > 125 mg/L
- MIC [15]: > 125 mg/L

Structure (SMILES): CC[C@H](C)[C@H](NC(=O)CN)C(=O)NCC(=O)N[C@@H](C)C(=O)N[C@H](C(=O)N[C@@H](CC(C)C)C(=O)N[C@@H](CCCCN)C(=O)N[C@H](C(=O)N[C@@H](CC(C)C)C(=O)N[C@H](C(=O)N[C@H](C(=O)NCC(=O)N[C@@H](CC(C)C)C(=O)N1CCC[C@H]1C(=O)N[C@@H](C)C(=O)N[C@@H](CC(C)C)C(=O)N[C@H](C(=O)N[C@@H](CO)C(=O)N[C@@H](Cc1c[nH]c2ccccc12)C(=O)N[C@H](C(=O)N[C@@H](CCCCN)C(=O)N[C@@H](CCCNC(=N)N)C(=O)N[C@@H](CCCCN)C(=O)N[C@@H](CCCNC(=N)N)C(=O)N[C@@H](CCC(N)=O)C(=O)N[C@@H](CCC(N)=O)C(N)=O)[C@@H](C)CC)[C@@H](C)CC)[C@@H](C)O)[C@@H](C)O)C(C)C)C(C)C [Melittin, reference compound]
- MIC [16]: 7.81 mg/L (≈ 2.74 µM)
- MIC [17]: 3.91 mg/L (≈ 1.37 µM)
- cell population BOX+PI- (P. aeruginosa ATCC 27853): 2.70%
- cell population BOX-PI+ (P. aeruginosa ATCC 27853): 0.12%
- cell population BOX-PI- (P. aeruginosa ATCC 27853): 3.14%
- permeabilized and depolarized cells (BOX+PI+) (P. aeruginosa ATCC 27853): 94.04%
- permeabilized and depolarized cells (BOX+PI+) (P. aeruginosa ATCC 27853; listed as melittin): 94.04 ± 3.25%
- GM (Gr.− strains): geometric mean of MIC values from all Gram-negative strains [18]: 10.60 mg/L
- MIC [19]: 3.91 mg/L (≈ 1.37 µM)
- concentration at which hemolysis was complete (100%) [20]: 1.95 µg/mL
- MIC [21]: 3.91 mg/L (≈ 1.37 µM)
- MIC [22]: 3.91 mg/L (≈ 1.37 µM)
- MIC [23]: 1.95 mg/L (≈ 0.685 µM)
- MIC [24]: 7.81 mg/L (≈ 2.74 µM)
- MIC [25]: 3.91 mg/L (≈ 1.37 µM)
- GM (Gr.+ strains): geometric mean of MIC values from all Gram-positive strains [26]: 3.52 mg/L
- MIC [27]: 3.91 mg/L (≈ 1.37 µM)
- MIC [28]: 15.63 mg/L (≈ 5.49 µM)
- L929 cell survival at the maximum concentration [29]: less than 1%
